# Test results reported in PubChem BioAssay (NCI).
#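 Protocol summary: plate cells (96-well), add compound at 5 concentrations, incubate 48 h, interpolate endpoints linearly. GI50 is the concentration that inhibits growth by half. At the TGI there is no net growth.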
# Legend:
# Assay in all cases: inhibition of tumour cell growth, NCI panel, 48 h
# 786-0 renal = system: 786-0 renal
# A498 renal = system: A498 renal
# A549 NSCLC = system: A549 NSCLC
# ACHN renal = system: ACHN renal
# BT-549 breast = system: BT-549 breast
# CAKI-1 renal = system: CAKI-1 renal
# CCRF-CEM leukemia = system: CCRF-CEM leukemia
# COLO 205 colon = system: COLO 205 colon
# DU-145 prostate = system: DU-145 prostate
# HCC-2998 colon = system: HCC-2998 colon
# HCT-116 colon = system: HCT-116 colon
# HCT-15 colon = system: HCT-15 colon
# HL-60(TB) leukemia = system: HL-60(TB) leukemia
# HOP-62 NSCLC = system: HOP-62 NSCLC
# HOP-92 NSCLC = system: HOP-92 NSCLC
# HS 578T breast = system: HS 578T breast
# HT29 colon = system: HT29 colon
# IGROV1 ovarian = system: IGROV1 ovarian
# K-562 leukemia = system: K-562 leukemia
# KM12 colon = system: KM12 colon
# LOX IMVI melanoma = system: LOX IMVI melanoma
# M14 melanoma = system: M14 melanoma
# MALME-3M melanoma = system: MALME-3M melanoma
# MCF7 breast = system: MCF7 breast
# MDA-MB-231 breast = system: MDA-MB-231 breast
# MDA-MB-435 = system: MDA-MB-435
# MOLT-4 leukemia = system: MOLT-4 leukemia
# NCI-H226 lung = system: NCI-H226 lung
# NCI-H23 lung = system: NCI-H23 lung
# NCI-H460 lung = system: NCI-H460 lung
# NCI-H522 lung = system: NCI-H522 lung
# NCI/ADR-RES ovarian = system: NCI/ADR-RES ovarian
# OVCAR-3 ovarian = system: OVCAR-3 ovarian
# OVCAR-4 ovarian = system: OVCAR-4 ovarian
# OVCAR-5 ovarian = system: OVCAR-5 ovarian
# OVCAR-8 ovarian = system: OVCAR-8 ovarian
# PC-3 prostate = system: PC-3 prostate
# RPMI-8226 leukemia = system: RPMI-8226 leukemia
# RXF 393 renal = system: RXF 393 renal
# SF-268 CNS = system: SF-268 CNS
# SF-295 CNS = system: SF-295 CNS
# SF-539 CNS = system: SF-539 CNS
# SK-MEL-2 melanoma = system: SK-MEL-2 melanoma
# SK-MEL-28 melanoma = system: SK-MEL-28 melanoma
# SK-MEL-5 melanoma = system: SK-MEL-5 melanoma
# SK-OV-3 ovarian = system: SK-OV-3 ovarian
# SN12C renal = system: SN12C renal
# SNB-19 CNS = system: SNB-19 CNS
# SNB-75 CNS = system: SNB-75 CNS
# SR leukemia = system: SR leukemia
# SW-620 colon = system: SW-620 colon
# T-47D breast = system: T-47D breast
# TK-10 renal = system: TK-10 renal
# U251 CNS = system: U251 CNS
# UACC-257 melanoma = system: UACC-257 melanoma
# UACC-62 melanoma = system: UACC-62 melanoma
# UO-31 renal = system: UO-31 renal
# EKVX NSCLC = system: EKVX NSCLC
structure (smiles),measurement,setting,value
COc1ccc(OC)c(C(=O)c2oc3ccc(Br)cc3c2N)c1,GI50,786-0 renal,581 nM
same,TGI,786-0 renal,47400 nM
same,GI50,A498 renal,92.3 nM
same,TGI,A498 renal,1560 nM
same,GI50,A549 NSCLC,493 nM
same,TGI,A549 NSCLC,> 54600 nM
same,GI50,ACHN renal,627 nM
same,TGI,ACHN renal,> 65100 nM
same,GI50,BT-549 breast,584 nM
same,TGI,BT-549 breast,21100 nM
same,GI50,CAKI-1 renal,372 nM
same,TGI,CAKI-1 renal,> 100000 nM
same,GI50,CCRF-CEM leukemia,332 nM
same,TGI,CCRF-CEM leukemia,24100 nM
same,GI50,COLO 205 colon,406 nM
same,TGI,COLO 205 colon,2110 nM
same,GI50,DU-145 prostate,604 nM
same,TGI,DU-145 prostate,17300 nM
same,GI50,HCC-2998 colon,1320 nM
same,TGI,HCC-2998 colon,12800 nM
same,GI50,HCT-116 colon,346 nM
same,TGI,HCT-116 colon,13900 nM
same,GI50,HCT-15 colon,214 nM
same,TGI,HCT-15 colon,14200 nM
same,GI50,HL-60(TB) leukemia,270 nM
same,TGI,HL-60(TB) leukemia,10300 nM
same,GI50,HOP-62 NSCLC,490 nM
same,TGI,HOP-62 NSCLC,> 50600 nM
same,GI50,HOP-92 NSCLC,1710 nM
same,TGI,HOP-92 NSCLC,38100 nM
same,GI50,HS 578T breast,403 nM
same,TGI,HS 578T breast,> 64800 nM
same,GI50,HT29 colon,326 nM
same,TGI,HT29 colon,10700 nM
same,GI50,IGROV1 ovarian,2130 nM
same,TGI,IGROV1 ovarian,> 87400 nM
same,GI50,K-562 leukemia,82 nM
same,TGI,K-562 leukemia,35200 nM
same,GI50,KM12 colon,348 nM
same,TGI,KM12 colon,18400 nM
same,GI50,LOX IMVI melanoma,581 nM
same,TGI,LOX IMVI melanoma,22400 nM
same,GI50,M14 melanoma,303 nM
same,TGI,M14 melanoma,16300 nM
same,GI50,MALME-3M melanoma,339 nM
same,TGI,MALME-3M melanoma,46800 nM
same,GI50,MCF7 breast,289 nM
same,TGI,MCF7 breast,> 48200 nM
same,GI50,MDA-MB-231 breast,847 nM
same,TGI,MDA-MB-231 breast,26700 nM
same,GI50,MDA-MB-435,46.6 nM
same,TGI,MDA-MB-435,253 nM
same,GI50,MOLT-4 leukemia,425 nM
same,TGI,MOLT-4 leukemia,23700 nM
same,GI50,NCI-H226 lung,2380 nM
same,TGI,NCI-H226 lung,> 100000 nM
same,GI50,NCI-H23 lung,649 nM
same,TGI,NCI-H23 lung,24000 nM
same,GI50,NCI-H460 lung,375 nM
same,TGI,NCI-H460 lung,12400 nM
same,GI50,NCI-H522 lung,321 nM
same,TGI,NCI-H522 lung,4140 nM
same,GI50,NCI/ADR-RES ovarian,341 nM
same,TGI,NCI/ADR-RES ovarian,> 77700 nM
same,GI50,OVCAR-3 ovarian,347 nM
same,TGI,OVCAR-3 ovarian,3280 nM
same,GI50,OVCAR-4 ovarian,3610 nM
same,TGI,OVCAR-4 ovarian,> 100000 nM
same,GI50,OVCAR-5 ovarian,1560 nM
same,TGI,OVCAR-5 ovarian,> 51700 nM
same,GI50,OVCAR-8 ovarian,576 nM
same,TGI,OVCAR-8 ovarian,97900 nM
same,GI50,PC-3 prostate,580 nM
same,TGI,PC-3 prostate,> 51000 nM
same,GI50,RPMI-8226 leukemia,370 nM
same,TGI,RPMI-8226 leukemia,6510 nM
same,GI50,RXF 393 renal,300 nM
same,TGI,RXF 393 renal,1690 nM
same,GI50,SF-268 CNS,725 nM
same,TGI,SF-268 CNS,> 59500 nM
same,GI50,SF-295 CNS,286 nM
same,TGI,SF-295 CNS,2610 nM
same,GI50,SF-539 CNS,237 nM
same,TGI,SF-539 CNS,712 nM
same,GI50,SK-MEL-2 melanoma,357 nM
same,TGI,SK-MEL-2 melanoma,4340 nM
same,GI50,SK-MEL-28 melanoma,610 nM
same,TGI,SK-MEL-28 melanoma,26200 nM
same,GI50,SK-MEL-5 melanoma,410 nM
same,TGI,SK-MEL-5 melanoma,16900 nM
same,GI50,SK-OV-3 ovarian,515 nM
same,TGI,SK-OV-3 ovarian,7070 nM
same,GI50,SN12C renal,648 nM
same,TGI,SN12C renal,29300 nM
same,GI50,SNB-19 CNS,901 nM
same,TGI,SNB-19 CNS,> 100000 nM
same,GI50,SNB-75 CNS,253 nM
same,TGI,SNB-75 CNS,1680 nM
same,GI50,SR leukemia,193 nM
same,TGI,SR leukemia,19100 nM
same,GI50,SW-620 colon,332 nM
same,TGI,SW-620 colon,> 66800 nM
same,GI50,T-47D breast,452 nM
same,TGI,T-47D breast,> 67600 nM
same,GI50,TK-10 renal,1740 nM
same,TGI,TK-10 renal,87700 nM
same,GI50,U251 CNS,397 nM
same,TGI,U251 CNS,16400 nM
same,GI50,UACC-257 melanoma,392 nM
same,TGI,UACC-257 melanoma,21800 nM
same,GI50,UACC-62 melanoma,432 nM
same,TGI,UACC-62 melanoma,14300 nM
same,GI50,UO-31 renal,707 nM
same,TGI,UO-31 renal,> 69300 nM
CN(C)/C=N/S(=O)(=O)c1nn2c(C=O)c(-c3ccc(Cl)cc3)nc2s1,TGI,786-0 renal,2500 nM
same,TGI,A498 renal,30300 nM
same,TGI,A549 NSCLC,20200 nM
same,TGI,ACHN renal,2360 nM
same,TGI,BT-549 breast,2830 nM
same,TGI,CAKI-1 renal,2580 nM
same,TGI,CCRF-CEM leukemia,701 nM
same,TGI,COLO 205 colon,2810 nM
same,TGI,DU-145 prostate,6020 nM
same,TGI,EKVX NSCLC,12700 nM
same,TGI,HCC-2998 colon,9750 nM
same,TGI,HCT-116 colon,2180 nM
same,TGI,HCT-15 colon,5630 nM
same,TGI,HOP-62 NSCLC,27500 nM
same,TGI,HOP-92 NSCLC,7170 nM
same,TGI,HS 578T breast,> 22000 nM
same,TGI,HT29 colon,552 nM
same,TGI,K-562 leukemia,3040 nM
same,TGI,KM12 colon,17600 nM
same,TGI,LOX IMVI melanoma,2850 nM
same,TGI,M14 melanoma,2170 nM
same,TGI,MALME-3M melanoma,3200 nM
same,TGI,MCF7 breast,2680 nM
same,TGI,MDA-MB-231 breast,7770 nM
same,TGI,MDA-MB-435,7920 nM
same,TGI,MOLT-4 leukemia,2680 nM
same,TGI,NCI-H226 lung,9860 nM
same,TGI,NCI-H23 lung,9810 nM
same,TGI,NCI-H460 lung,22400 nM
same,TGI,NCI-H522 lung,2120 nM
same,TGI,NCI/ADR-RES ovarian,10600 nM
same,TGI,OVCAR-3 ovarian,2870 nM
same,TGI,OVCAR-4 ovarian,3580 nM
same,TGI,OVCAR-5 ovarian,5550 nM
same,TGI,OVCAR-8 ovarian,3200 nM
same,TGI,PC-3 prostate,9380 nM
same,TGI,RPMI-8226 leukemia,4220 nM
same,TGI,RXF 393 renal,3370 nM
same,TGI,SF-268 CNS,12600 nM
same,TGI,SF-295 CNS,28200 nM
same,TGI,SF-539 CNS,5210 nM
same,TGI,SK-MEL-2 melanoma,21300 nM
same,TGI,SK-MEL-28 melanoma,3330 nM
same,TGI,SK-MEL-5 melanoma,2980 nM
same,TGI,SK-OV-3 ovarian,29500 nM
same,TGI,SN12C renal,5940 nM
same,TGI,SNB-19 CNS,28800 nM
same,TGI,SNB-75 CNS,24300 nM
same,TGI,SR leukemia,3400 nM
same,TGI,SW-620 colon,1520 nM
same,TGI,T-47D breast,3360 nM
same,TGI,TK-10 renal,2880 nM
same,TGI,U251 CNS,11700 nM
same,TGI,UACC-257 melanoma,9830 nM
same,TGI,UACC-62 melanoma,14300 nM
same,TGI,UO-31 renal,2180 nM
